For data set [1] the following is noted: bolus single dose of 2-6 grams.
Data set [2] in a line: Paraesthesia symptoms after ingesting edible gel or beta-alanine dissolved in water (Example 1). The data set is classed as in vivo, human. The note with it: 2 g beta-alanine ingested; following 20 minutes. Here is the method: To prepare an edible gel containing free beta-alanine the contents of two packets of commercially available strawberry flavored gelatin gel were dissolved in 200 ml of boiling water. The contents were stirred continuously until the gel was completely dissolved. The gel was further fortified with the addition of a sachet of gelatin capsules. To this was added 80 g free beta-alanine (in a final volume of approximately 300 ml). The concentrated gel solution was poured into a 12×12 cm flat mould to a depth of approximately 2 cm and allowed to set to a stiff gel at 4° C. One square piece of gel (approximately 2×2×2 cm in size) contained approximately 2 g of beta-alanine.
In contrast, symptoms of paraesthesia were detected in subjects that ingested 2 g free beta-alanine dissolved in water. Thus the sustained release of free beta-alanine mitigates the symptoms of paraesthesia that are felt when equivalent amounts are administered in a single bolus dose.

The subject of data set [3] is muscle. Conditions: administering to an individual. An excerpt:
The dosing schedule that has been preferred for such administration (i.e., 8 times daily), however, leads to compliance issues and problems with paraesthesia. Thus, there is a need for improved supplements containing free beta-alanine or a biological source thereof in a sustained release formulation to increase compliance and decrease paraesthesia events.
During sustained intensive exercise or exercise sustained under conditions of local hypoxia, the accumulation of hydronium ions formed during glycolysis and the accumulation of lactate due to anaerobic metabolism can severely reduce the intracellular pH. The reduced pH can compromise the function of the creatine-phosphorylcreatine system. The decline in intracellular pH also can affect other functions within the cells such as the function of the contractile proteins in muscle fibers.

Data set [4] is described as follows: Paraesthesia symptoms, drink versus delayed release capsules (Example 3). The note with it: 1.75 g beta-alanine; two subjects. It counts as in vivo, human. An excerpt:
Two subjects were given 1.75 g beta-alanine dissolved in water (formulated as a drink) or 5 capsules, each containing 0.35 g beta-alanine in a delayed release formulation.

Data set [5] deals with muscle. Conditions: following administration (supplementation); previous work; cited from earlier work.

As to `NCCC(=O)O` [beta-alanine], in data set [1], the paraesthesia result is “results in paraesthesia”. Also, the symptoms of paraesthesia entry in data set [2] is recorded as “detected”. Also, in the data set on muscle [3], the “muscle beta-alanylhistidine peptide levels” value is “elevated” and the “total work capacity of the muscle” value is recorded as “increased”. Further, the symptoms of paraesthesia entry in data set [4] is “reported symptoms of paraesthesia affecting the face, scalp, neck, arms, hands and buttocks”. For the same molecule, in the data set with muscle [5], the carnosine in muscle result is given as “significantly increased”.

The values above are taken from patent US12036196B2, “Compositions and methods for the sustained release of beta-alanine” (Natural Alternatives International, Inc., priority 2005, dated 2024).
